Experimental data: patent US20220031815A1, “ANIMAL FEED COMPOSITION AND USE THEREOF” (DSM IP ASSETS B.V., priority 2018, published 2022)

Tested on: male broiler chickens (Cobb-500)
Experiment: In vivo broiler trial 1: growth performance under litter/density challenge
Description: The trial was performed at Poultrz section, INTA-EEA Pergamino, Buenos Aires, Argentina from Aug. 15, 2017 to Oct. 3, 2017. Day-old male broiler chickens (“Cobb-500”), were supplied by a commercial hatchery (Granja Tres Arroyos, Tres Arroyos 378, Buenos Aires, Argentina).
Birds were housed in a conventional barn (netting open sides with curtains) into floor pens with shaving wood as litter. Gas heaters, fans and foggers were used to control the barn temperature.
All birds were weighed, separated in categories of 1 g and distributed to form homogenous lots. Birds of extreme weights were excluded.
Feed and waer were providing ad-libitum.
The experimental diets (Starter, Growing, Finisher and last week) were based on corn, soybean meal as main ingredients (Table 3). Phytase (RONOZYME® HiPhos GT, dose 1000 FYT/kg of feed, 100 g/tn of feed) was used in all the treatments. Rovimix broilders from DSM was used as vitamin-mineral premix, and maduramycin as coccidiostat. The composition of the feed was listed as Table 4
Individual body weight and pen feed intake were determined weekly.
Based on this information feed conversion and weight gain were calculated considering each phase and the complete cycle.
The live weight/feed conversion ratio was used. This is a simplification to avoid the impact of mortality when a low number of birds per pen is used (18 in this experiment).
Uniformity (% of birds included in a range of weights of […] of the pen mean body weight) was determined in each pen at 48 days of age.

Enramycin
effect on feed conversion (Enramycin significant from day 35, muramidase at day 7 and from day 21): the feed conversion was improved | reduction of days to reach the slaughtering weight (2800 g) (effect of inclusion in feed (Enramycin 10 ppm; Muramidase 392 ppm)): 1.1 days | effect on body weight (significant from day 21): an increment in body weight was observed
